# Reference: paper PMC10201364 (MicrobiologyOpen, 2023)
# Assays:
# Assay in all cases: cell-based
# [1] = biological target: Ah‐BarR M103N (P ah‐barR promoter, mKate2 reporter) (Acidianus hospitalis, UniProt F4B5V3, M103N); type: cell-based
# Description: (§1) Reporter gene assays were performed as previously described (Bernauw et al., [2022]). pPRC6 and pITC variants (Table 1) were co‐transformed in E. coli MG1655 chemical competent cells using heat shock transformation. Transformant colonies of the Ah‐BarR biosensor strains were picked to inoculate wells of a transparent 96‐well plate (Greiner Bio‐One), each well filled with 200 µL of MOPS EZ Rich Defined medium (Teknova), prepared without the addition of the 5X EZ Supplement, after which the plate was incubated overnight in a ThermoMixer C (Eppendorf) at 30°C and 300 rpm. Next, a black 96‐well plate was filled with a naringenin solution prepared in ethanol (250 mg/L or 2.5 g/L), after which a Breathe‐Easy sealing membrane (Sigma‐Aldrich) was applied and the ethanol was evaporated in a ThermoMixer C (Eppendorf) at 75°C. […] Finally, the plate was sealed again using a Breathe‐Easy sealing membrane (Sigma‐Aldrich).
# (§2) Plates were incubated at 30°C and 300 rpm for 40 h in a Synergy H1 microplate reader (BioTek) with measurements of OD600 and fluorescence (excitation wavelength: 588 nm, emission wavelength: 633 nm) being taken every 20 min. The gain was set to 140 for all measurements, except for the measurements with the amino acids (pools and separately), where the gain was set to 150. […] In addition, wells solely containing medium were measured as well to correct for the background signal.
# (§3) Reporter expression was analyzed at t = 30 h, when all cultures had reached the stationary phase, by taking into account three subsequent time points (t–1, t, t+1). The corrected FL/OD600 value was calculated for each replicate (n = 4) as follows: FL/ODcor=FLt−1−FLmed,t−1/ODt−1−ODmed,t−1+FLt−FLmed,t/ODt−ODmed,t+FLt+1−FLmed,t+1/ODt+1−ODmed,t+1/3
# (§4) Response curves were fitted to a Hill function of the shape P(M)=b+aM^n/θ^n+M^nforaβ−alanine−inducible responseb+aθ^n/θ^n+M^nforaβ−alanine−repressible response according to a previously published procedure (Landry et al., [2018]) with minor adaptations. […] Briefly, lmfit 1.1.0 was used to fit all replicates of a response curve to the appropriate Hill function using the Levenberg‐Marquardt algorithm (Moré, [1978]; Newville et al., [2016]). […] The dynamic range was estimated as μ=a/b .
# [2] = biological target: Ah‐BarR M103T (P ah‐barR promoter, mKate2 reporter) (Acidianus hospitalis, UniProt F4B5V3, M103T); type: cell-based
# Sequence of Ah‐BarR M103T (P ah‐barR promoter, mKate2 reporter) (F4B5V3 entry or part of it M103T): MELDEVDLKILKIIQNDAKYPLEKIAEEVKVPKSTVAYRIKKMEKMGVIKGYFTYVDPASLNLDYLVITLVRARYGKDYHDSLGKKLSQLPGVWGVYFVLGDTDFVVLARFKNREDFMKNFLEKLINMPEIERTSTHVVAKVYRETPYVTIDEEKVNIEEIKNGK
# Description: as §1, §2, §3, §4
# [3] = biological target: Ah‐BarR T134A (P ah‐barR promoter, mKate2 reporter) (Acidianus hospitalis, UniProt F4B5V3, T134A)
# Sequence of Ah‐BarR T134A (P ah‐barR promoter, mKate2 reporter) (F4B5V3 entry or part of it T134A): as the sequence (F4B5V3 entry or part of it M103T) above, with T103M, T134A counted along it
# Description: as §1, §2, §3, §4
# [4] = biological target: Ah‐BarR T136A (P ah‐barR promoter, mKate2 reporter) (Acidianus hospitalis, UniProt F4B5V3, T136A)
# Sequence of Ah‐BarR T136A (P ah‐barR promoter, mKate2 reporter) (F4B5V3 entry or part of it T136A): as the sequence (F4B5V3 entry or part of it M103T) above, with T103M, T136A counted along it
# Description: as §1, §2, §3, §4
# [5] = biological target: Ah‐BarR (P ah‐barR promoter, mKate2 reporter) (Acidianus hospitalis, UniProt F4B5V3)
# Sequence of Ah‐BarR (P ah‐barR promoter, mKate2 reporter) (F4B5V3 1-165): as the sequence (F4B5V3 entry or part of it M103T) above, with T103M counted along it
# Description: as §1, §2, §3, §4
# [6] = biological target: Ah‐BarR M103A (P ah‐barR promoter, mKate2 reporter) (Acidianus hospitalis, UniProt F4B5V3, M103A)
# Sequence of Ah‐BarR M103A (P ah‐barR promoter, mKate2 reporter) (F4B5V3 entry or part of it M103A): as the sequence (F4B5V3 entry or part of it M103T) above, with T103A counted along it
# Description: as §1, §2, §3, §4
# [7] = biological target: Ah‐BarR (P ah‐at aminotransferase promoter, mKate2 reporter) (Acidianus hospitalis, UniProt F4B5V3)
# Sequence of Ah‐BarR (P ah‐at aminotransferase promoter, mKate2 reporter) (F4B5V3 1-165): as the sequence (F4B5V3 entry or part of it M103T) above, with T103M counted along it
# Description: as §1, §2, §3, §4
# [8] = biological target: Ah‐BarR (S. acidocaldarius promoter P sa‐barR, mKate2 reporter) (Acidianus hospitalis, UniProt F4B5V3)
# Sequence of Ah‐BarR (S. acidocaldarius promoter P sa‐barR, mKate2 reporter) (F4B5V3 1-165): as the sequence (F4B5V3 entry or part of it M103T) above, with T103M counted along it
# Description: as §1, §2, §3, §4
# (§5) Additional in vivo experiments were performed on strains BS3 and BS4 using the S. acidocaldarius promoters P sa‐barR and P sa‐at , respectively, in combination with Ah‐BarR.
# [9] = biological target: Ah‐BarR (S. acidocaldarius promoter P sa‐at, mKate2 reporter) (Acidianus hospitalis, UniProt F4B5V3)
# Sequence of Ah‐BarR (S. acidocaldarius promoter P sa‐at, mKate2 reporter) (F4B5V3 1-165): as the sequence (F4B5V3 entry or part of it M103T) above, with T103M counted along it
# Description: as §1, §2, §3, §4, §5
# [10] = BS1 M103T, β‐alanine 0–10 mM, 20 mg/L naringenin, Hill fit
# [11] = BS1 T134A, β‐alanine 0–10 mM, 20 mg/L naringenin, Hill fit
# [12] = BS1 T136A, β‐alanine 0–10 mM, 20 mg/L naringenin, Hill fit
# [13] = BS1, β‐alanine 0–10 mM, 20 mg/L naringenin, t = 30 h, Hill fit
# [14] = BS1 M103A, β‐alanine 0–10 mM, 20 mg/L naringenin, Hill fit
# [15] = BS2, β‐alanine 0–10 mM, 20 mg/L naringenin, Hill fit
# [16] = BS3, β‐alanine 0–10 mM, 20 mg/L naringenin, Hill fit
# [17] = BS4, β‐alanine 0–10 mM, 20 mg/L naringenin, Hill fit
# Sequence of Ah‐BarR M103N (P ah‐barR promoter, mKate2 reporter) (F4B5V3 entry or part of it M103N): as the sequence (F4B5V3 entry or part of it M103T) above, with T103N counted along it
compound,measurement,setting,value
NCCC(=O)O [β‐alanine],Basal fluorescence output b,[1],2281 RFU
same,Dynamic range µ,[1],4.11
same,EC50,[1],460 µM
same,Hill coefficient n,[1],1.48
same,Maximum fluorescence increase a,[1],9373 RFU
same,EC50,[2],320 µM
same,Hill coefficient n,"[2]; BS1 M103T, 20 mg/L naringenin",1.36
same,Dynamic range µ,"[2]; BS1 M103T, µ = a/b",2.49
same,Basal fluorescence output b,[2]; [10],3184 RFU
same,Maximum fluorescence increase a,[2]; [10],7915 RFU
same,EC50,[3],1610 µM
same,Hill coefficient n,"[3]; BS1 T134A, 20 mg/L naringenin",1.68
same,Dynamic range µ,"[3]; BS1 T134A, µ = a/b",4.06
same,Basal fluorescence output b,[3]; [11],2145 RFU
same,Maximum fluorescence increase a,[3]; [11],8703 RFU
same,EC50,[4],960 µM
same,Hill coefficient n,"[4]; BS1 T136A, 20 mg/L naringenin",1.36
same,Dynamic range µ,"[4]; BS1 T136A, µ = a/b",3.31
same,Basal fluorescence output b,[4]; [12],2469 RFU
same,Maximum fluorescence increase a,[4]; [12],8171 RFU
same,EC50,[5],370 µM
same,Hill coefficient n,"[5]; BS1, 20 mg/L naringenin",1.77
same,Dynamic range µ,"[5]; BS1, µ = a/b",3.07
same,Basal fluorescence output b,[5]; [13],2226 RFU
same,Maximum fluorescence increase a,[5]; [13],6828 RFU
same,ligand specificity: effect on transcriptional regulation of barR and at,"[5]; BS1 and BS2 strains, 20 mg/L naringenin, individual amino acids of pools 1 and 7 at 3/5 mM",specifically ascribed to β‐alanine
same,EC50,[6],1350 µM
same,Hill coefficient n,"[6]; BS1 M103A, 20 mg/L naringenin",1.88
same,Dynamic range µ,"[6]; BS1 M103A, µ = a/b",3.25
same,Basal fluorescence output b,[6]; [14],2289 RFU
same,Maximum fluorescence increase a,[6]; [14],7429 RFU
same,EC50,[7],110 µM
same,Hill coefficient n,"[7]; BS2, 20 mg/L naringenin",1.62
same,Dynamic range µ,"[7]; BS2, µ = a/b",1.58
same,Basal fluorescence output b,[7]; [15],313 RFU
same,Maximum fluorescence increase a,[7]; [15],494 RFU
same,EC50,[8],100 µM
same,Hill coefficient n,"[8]; BS3, 20 mg/L naringenin",2.00
same,Dynamic range µ,"[8]; BS3, µ = a/b",1.17
same,Basal fluorescence output b,[8]; [16],4595 RFU
same,Maximum fluorescence increase a,[8]; [16],5355 RFU
same,EC50,[9],90 µM
same,Hill coefficient n,"[9]; BS4, 20 mg/L naringenin",2.99
same,Dynamic range µ,"[9]; BS4, µ = a/b",5.15
same,Basal fluorescence output b,[9]; [17],"13,873 RFU"
same,Maximum fluorescence increase a,[9]; [17],"71,426 RFU"
